Reference: ChEMBL document CHEMBL4184129, “Inhibitors of nuclease and redox activity of apurinic/apyrimidinic endonuclease 1/redox effector factor 1 (APE1/Ref-1)” (Bioorg Med Chem, 2017)

Legend:
[1] = target: T1, DNA repair nuclease/redox regulator APEX1 (Homo sapiens, UniProt P27695); assay: Inhibition of nuclease activity of APE1 in human glioblastoma cells assessed as reduction in AP site DNA cleavage; assay type: cell-based
[2] = target: T1, DNA repair nuclease/redox regulator APEX1; assay: Inhibition of […] activity of full length N-terminal hexa-His SUMO-fused human APE1 using HEX-labeled THF oligonucleotide as substrate preincubated for 30 to 120 mins followed by substrate addition measured after 15 mins by fluorescence assay
[3] = target: T1, DNA repair nuclease/redox regulator APEX1; assay: Inhibition of recombinant human APE1 using a 5'-FAM/3'-Dabsyl labelled double-stranded DNA as substrate after 30 mins by fluorescence-based assay
[4] = target: T1, DNA repair nuclease/redox regulator APEX1; assay: Inhibition of recombinant human APE1 using 5'-F-GCCCCCXGGGGACGTACGATATCCCGCTCC-3' as substrate preincubated for 10 mins followed by substrate addition measured at 5 mins intervals for 30 mins by fluorescence-based assay
[5] = target: T1, DNA repair nuclease/redox regulator APEX1; assay: Inhibition of human APE1 using a 5'-TAMRA labelled THF abasic site double-stranded oligodeoxynucleotide as substrate in presence of Mg2+ by fluorescence polarization displacement assay
[6] = target: T1, DNA repair nuclease/redox regulator APEX1; assay: Inhibition of N-terminal hexa-His tagged human APE1 expressed in Escherichia coli BL21 (Rosetta) using fluorescein-dabcyl-containing oligonucleotide as substrate measured over 5 mins by high-throughput fluorescence assay
[7] = target: T1, DNA repair nuclease/redox regulator APEX1; assay: Inhibition of APE1 in human HeLa cells assessed as reduction in AP site cleavage 5'-[gamma-32P]CTCGCAAGUGGGTACCGA-3' as substrate after 1 hr; assay type: cell-based
[8] = target: T1, DNA repair nuclease/redox regulator APEX1; assay: Inhibition of His-tagged human APE1 expressed in Escherichia coli M15 assessed as reduction in cleavage of 26 mer substrate to 13 mer products pre-incubated for 30 mins before substrate addition for 15 mins using 5' end [32P] AP site containing 26 mer oligonucleotide by polyacrylamide gel electrophoresis
[9] = target: T1, DNA repair nuclease/redox regulator APEX1; assay: Inhibition of APE1 in human HeLa cells; assay type: cell-based
[10] = target: T1, DNA repair nuclease/redox regulator APEX1; assay: Inhibition of human APE1 measured every 5 mins for 60 mins by FAM fluorophore based fluorescence assay
[11] = target: T1, DNA repair nuclease/redox regulator APEX1; assay: Binding affinity to full length human APE1 expressed in Escherichia coli BL21/DE3
[12] = target: T1, DNA repair nuclease/redox regulator APEX1; assay: Inhibition of human APE1 assessed as reduction in abasic sites DNA cleavage using 6-FAM/TAMRA labelled 17-Tphi as substrate by fluorescence-based assay
[13] = tested on: Panel NCI-60 (60 carcinoma cell lines); assay: Growth inhibition in human NCI60 cells after 72 hrs by CellTiterGlo assay; assay type: functional

T1 sequence (P27695 whole entry, the tested form may be a part): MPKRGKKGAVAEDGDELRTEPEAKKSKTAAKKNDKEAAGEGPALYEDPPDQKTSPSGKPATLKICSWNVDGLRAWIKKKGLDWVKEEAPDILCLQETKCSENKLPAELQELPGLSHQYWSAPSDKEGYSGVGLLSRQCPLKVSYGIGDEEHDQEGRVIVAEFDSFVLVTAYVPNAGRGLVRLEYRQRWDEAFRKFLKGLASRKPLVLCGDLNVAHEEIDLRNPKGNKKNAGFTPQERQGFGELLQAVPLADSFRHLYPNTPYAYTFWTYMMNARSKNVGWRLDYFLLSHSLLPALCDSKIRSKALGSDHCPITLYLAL

Compound `Cc1sc(-c2ccc(Cl)cc2)nc1-c1ccc(-c2ccccc2F)cc1` has an IC50 [1] of 1300 nM.

In the case of `C=C1S/C(=N\c2ccccc2Cl)N(C(=O)c2sc3ccccc3c2Cl)C12CCCCC2`, the IC50 [1] is reported as 1400 nM.

For `CCCCCCCCC/C(=C\C1=C(C)C(=O)C(OC)=C(OC)C1=O)C(=O)NOC`, the IC50 [2] was 8.5 µM.

Compound `O=c1oc(-c2ccccc2F)nc2cc(Cl)ccc12` has an IC50 [1] of 1600 nM.

In the case of `O=[N+]([O-])c1cccc(S(=O)(=O)[N-]c2nc3ccccc3nc2-[n+]2ccc(Cc3ccccc3)cc2)c1`, the IC50 [3] is reported as 6.8 µM.

In the case of `O=C(OCC(=O)N1NC(c2ccc3ccccc3c2)=C[C@@H]1c1ccccc1)c1ccc([N+](=O)[O-])s1`, the IC50 [4] is reported as 3000 nM.

`O=C1NC(=O)N(Cc2ccco2)C(=O)/C1=C/C=C/c1ccco1` was tested, and the IC50 [5] was 2800 nM.

`Cc1ccc(C)n1-c1ccc(OCC(=O)O)cc1` showed an IC50 [6] of 1700 nM.

Work on `O=C(O)c1cc2cccc([N+](=O)[O-])c2[nH]1` yielded an IC50 [7] of 3.06 µM.

`COc1c(C(=O)O)cccc1C(=O)NCc1cccc(Cl)c1` gave an IC50 [8] of 16 µM.

Work on `CC(C)(C)c1ccc(S(=O)(=O)Oc2ccc(-c3ccc(Oc4c(Cl)cccc4[N+](=O)[O-])cc3)cc2)cc1` yielded an IC50 [1] of 1700 nM.

In the case of `Cc1cc(C)c2c(N)c3cccc(C)c3nc2n1`, the IC50 [6] is reported as 2100 nM.

In the case of `O=C(CSc1ncn[nH]1)Nc1cccc2c1C(=O)c1ccccc1C2=O`, the IC50 [9] is reported as 4 µM.

`CCOC(=O)c1cc(-c2ccc(/C=C3/C(=O)N(c4ccc(C(=O)O)cc4)N=C3C)o2)ccc1Cl` gave an IC50 [5] of 6800 nM.

Compound `CC1=C/C(=C(/c2ccc(O)c(C)c2)c2ccccc2C(=O)O)C=CC1=O` has an IC50 [10] of 1700 nM.

For `Cc1sc(Nc2cc(Cl)cc(Cl)c2)nc1-c1ccc(-c2ccccc2F)cc1`, the IC50 [1] was 900 nM.

`O=C(Nc1cccc(Cl)c1)c1noc2c1CCC2` gave an IC50 [6] of 1600 nM.

`O=S(=O)(Oc1ccc(-c2ccc(OS(=O)(=O)c3ccc(Cl)c(Cl)c3)cc2)cc1)c1ccc(Cl)c(Cl)c1` gave an IC50 [1] of 1800 nM.

`O=C(c1cc2ccccc2o1)[C@@H](O)c1nc2ccccc2s1` was tested, and the IC50 [4] was 2000 nM.

`COc1cc2c(ccc3cc(OC)c(OC)c(O)c32)cc1O` was tested, and the IC50 [5] was 400 nM.

With `Brc1cc(-c2cc(Br)c(Br)c(Br)c2)cc(Br)c1Br` the IC50 [1] was 200 nM.

`COc1cccc(CNC(=O)c2cccc(C(=O)O)c2OC)c1` gave an IC50 [8] of 19 µM.

Work on `Cc1coc2c1C(=O)C(=O)c1c-2ccc2c1CCCC2(C)C` [TANSHINONE IIA] yielded a Kd [11] of 0.88 nM.

For `COc1ccc(CNC(=O)c2cccc(C(=O)O)c2OC)cc1OC`, the IC50 [8] was 18 µM.

In the case of `O=c1oc(-c2ccc(Cl)cc2Cl)nc2ccc([N+](=O)[O-])cc12`, the IC50 [1] is reported as 2000 nM.

Compound `O=C(O)CC[C@H]1N[C@@]2(C(=O)Nc3c(Cl)cccc32)[C@H]2C(=O)N(Cc3ccc4c(c3)OCO4)C(=O)[C@@H]12` has an IC50 [3] of 1.8 µM.

Work on `Nc1c(S(N)(=O)=O)cc(S(N)(=O)=O)cc1S(N)(=O)=O` yielded an IC50 [10] of 1400 nM.

`c1cc2ccc3cc2cc1CNCCOCCNCc1ccc2ccc(cc2c1)CNCCOCCNC3` gave an IC50 [12] of 55 nM.

In the case of `c1cc2ccc3cc2cc1CNCCNCCNCc1ccc2ccc(cc2c1)CNCCNCCNC3`, the IC50 [12] is reported as 57 nM.

In the case of `CCn1c2ccccc2c2cc(/C=N/Nc3cc(C)nc4cc5c(cc34)OCO5)ccc21`, the GI50 [13] is reported as 4.2 µM.

`COc1c(C(=O)O)cccc1C(=O)NCc1ccc(Cl)c(Cl)c1` showed an IC50 [8] of 18 µM.

For `CC(C)(C)c1ccc(OC(=O)c2sc3ccccc3c2Cl)c(C(C)(C)C)c1`, the IC50 [1] was 800 nM.
